The values below are quoted from earlier work in US20060252804A1, “Flupirtin injectable galenic form” (AWD.pharma GMBH &Co. KG, priority 2003, published 2006).

For this data set the following is noted: in aqueous solutions and in most physiologically tolerated organic solvents.

Consider `CCOC(=O)Nc1ccc(NCc2ccc(F)cc2)nc1N` [flupirtine, 2-amino-3-carbethoxyamino-6-(4-fluorobenzylamino)pyridine], for which the solubility entry is listed as “scarcely soluble”.
